Test results from patent US9744196B2, “Composition for parenteral administration, method for producing and method use thereof” (N2 PHARMACEUTICALS LTD, priority 2013, dated 2017).

Test system: white rats
Assay: Adaptogenic (antistress) properties, shaker-induced transport stress
Format: in vivo
Description: Tests were conducted on 84 white rats and 36 white mice using pharmacological, haematological, biochemical and immunologic assays known in the art. Upon studying beneficial effects of composition A on the organisms of laboratory animals, certain haematological and immunobiological indices of the test and control animals were considered. Haematological parameters were evaluated in blood specimens by methods known in the art: white blood cells count per 1 cubic millimeter using Gorjaev's chamber. The following immunobiological indices were counted: blood protein content, glucose, phagocytosis and a number of other parameters, characterizing condition of an organism. The total protein content in blood serum was measured by refractometric analysis. Refractive index of blood serum depends mainly on the amount of proteins.
Glucose concentration was measured using the ortho-toluidine method based on staining of glucose compound with ortho-toluidine in acetic acid solution, the intensity of said being proportional to the glucose concentration.
The test was conducted on 12 rats, 4 animals being in each of three groups. Stress in experimental white rats was induced using a shaking machine simulating transport (physical) stress. The box with animals was placed onto the shaker and held atop the operating machine for 30-40 min. The most informative parameters, characterizing the onset and development of stress response (stress mediators): glucose, total protein and leukocytes (WBC) levels, were measured in blood of the white rats.
Composition A was administered to the animals of the 1st group intramuscularly 3 days previous to stress induction in a dose of 0.2 ml. 2.5% solution of neuroleptic agent aminazin in a dose of 0.5 mg per capita was administered to the animals of the 2nd group. A normal saline solution was administered intramuscularly to the animals of the 3rd (control) group. Rats' blood examination to estimate the above parameters was performed 1 h and 24 h after stress induction.

[1] = 24 hours after stress induction

Question: How did the Glucose (1 hour after stress induction) turn out when `CN(C)CCCN1c2ccccc2Sc2ccc(Cl)cc21` [Aminazin, aminazin] was run?
Answer: 6.46 ± 0.45 mmol/L

Question: What about the “Leukocytes (WBC)” value (1 hour after stress induction) of the same compound?
Answer: 4.3 ± 0.4 10^3/uL

Question: What about the Total protein (1 hour after stress induction) of the same compound?
Answer: 66.0 ± 0.5 g/L

Question: What about the Glucose (1 hour after stress induction, listed as aminazin) of the same compound?
Answer: 6.46 ± 0.45 mmol/L

Question: And the Glucose [1]?
Answer: 6.25 ± 0.3 mmol/L

Question: What about the “Leukocytes (WBC)” value [1] of the same compound?
Answer: 6.1 ± 0.3 10^3/uL

Question: What about the Total protein [1] of the same compound?
Answer: 72.4 ± 1.6 g/L

Question: And the Glucose (24 hours after stress induction, listed as aminazin)?
Answer: 6.25 ± 0.3 mmol/L
